From PMC4755858 (Biochemistry, 2016)
Where two headings read alike, the source gives them in different places.

Tests used:
[1] = molecular target: phosphodiesterase protein GdpP (Bacillus subtilis, UniProt P37484); experiment: competition phosphodiesterase assay; conditions: for Fold Change: Ki relative to Km of c-di-AMP (130 µM); for effect on c-di-AMP degradation by GdpP (in words): excess unlabeled competitor analog
[2] = system: wild-type ydaO riboswitch; experiment: gel-shift; assay type: binding, Bacillus subtilis; conditions: for ΔΔGbind: ΔGbind(analog) − ΔGbind(c-di-AMP); for binding to ydaO riboswitch (in words): competition gel-shift, highest analog concentration tested (≥200 µM); for binding energy weaker than the corresponding deoxy variant: 2’-fluoro versus 2’-deoxy analog (c-dA-AMP or c-di-dAMP)
[3] = molecular target: T1, phosphodiesterase protein GdpP (GdpP84–659) (Bacillus subtilis, UniProt P37484); experiment: HPLC phosphodiesterase assay, degradation rates of c-di-AMP and analogs; assay type: biochemical; conditions: for Fold Change: hydrolysis rate relative to c-di-AMP (fold slower); for degradation by GdpP (in words): HPLC assay, incubation up to 24 h
[4] = system: ydaO riboswitch Site 2U construct; experiment: gel-shift binding to ydaO G-U mutant Site 2U
[5] = molecular target: ydaO riboswitch ΔSite1 mutant; experiment: gel-shift binding to ydaO binding-site mutant ΔSite1; conditions: for Kd: read-out: Ligand Kd; for Kd / fold loss in affinity compared to native ligand: ΔSite1 construct; for fold loss in affinity compared to native ligand: versus c-di-AMP
[6] = system: ydaO riboswitch Site 1U construct; experiment: gel-shift binding to ydaO G-U mutant Site 1U
[7] = molecular target: ydaO riboswitch ΔSite2 mutant; experiment: gel-shift binding to ydaO binding-site mutant ΔSite2; conditions: for Kd: read-out: Ligand Kd; for Kd / fold loss in affinity compared to native ligand: ΔSite2 construct; for fold loss in affinity compared to native ligand: versus c-di-AMP
[8] = molecular target: T1, phosphodiesterase protein GdpP (GdpP84–659); conditions: cited from earlier work
[9] = molecular target: T1, phosphodiesterase protein GdpP (GdpP84–659); experiment: steady-state kinetics; assay type: biochemical
[10] = system: wild-type ydaO riboswitch; conditions: cited from earlier work
[11] = system: ydaO riboswitch ΔSite1 mutant; conditions: cited from earlier work
[12] = system: ydaO riboswitch, both binding sites mutated; experiment: gel-shift binding to ydaO construct with both binding sites mutated; conditions: both binding sites mutated in a single construct
[13] = loss in affinity for wild-type ydaO relative to c-di-AMP

Sequence of phosphodiesterase protein GdpP (P37484 84-659): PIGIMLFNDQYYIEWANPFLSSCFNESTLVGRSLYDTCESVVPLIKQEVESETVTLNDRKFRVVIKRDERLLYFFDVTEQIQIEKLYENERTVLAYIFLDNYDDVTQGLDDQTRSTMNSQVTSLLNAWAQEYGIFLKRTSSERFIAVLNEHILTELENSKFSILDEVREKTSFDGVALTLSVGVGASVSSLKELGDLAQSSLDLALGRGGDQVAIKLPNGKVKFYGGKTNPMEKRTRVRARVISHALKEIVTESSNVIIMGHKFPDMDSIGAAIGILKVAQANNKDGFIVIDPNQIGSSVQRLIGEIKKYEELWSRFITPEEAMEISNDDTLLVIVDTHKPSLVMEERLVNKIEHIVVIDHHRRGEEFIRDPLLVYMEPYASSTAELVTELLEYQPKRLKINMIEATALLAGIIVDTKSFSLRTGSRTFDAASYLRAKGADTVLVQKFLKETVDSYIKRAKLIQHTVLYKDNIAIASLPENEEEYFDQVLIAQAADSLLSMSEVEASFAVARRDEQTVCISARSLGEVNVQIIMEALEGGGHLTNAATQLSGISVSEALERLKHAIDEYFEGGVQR
T1 sequence (P37484 84-659): as above

| Compound | Ki [1] | Fold Change [1] | effect on c-di-AMP degradation by GdpP (in words) [1] | Fold Loss [2, 13] | ΔΔGbind ([2]; wild-type ydaO) | Fold Change [3] | further results |
| --- | --- | --- | --- | --- | --- | --- | --- |
| Nc1ncnc2c1ncn2[C@@H]1O[C@@H]2COP(=O)(O)O[C@H]3C[C@H](n4cnc5c(N)ncnc54)O[C@@H]3COP(=O)(O)O[C@H]2[C@H]1F [c-dA-2’F-A] | 9.4 ± 0.8 µM | 0.07 | reduced degradation velocity | 530 | 3.7 kcal/mol | ≥ 4100 | improvement in binding energy by replacing a 2’-fluoro substituent with a 2’-deoxy group ([2]; wild-type ydaO): ~1.4 kcal/mol |
| COC1C2OP(=O)(O)OCC3OC(n4cnc5c(N)ncnc54)C(O)C3OP(=O)(O)OCC2OC1n1cnc2c(N)ncnc21 (centres unmarked) [c-2’OMe-A-AMP] |  |  |  |  |  | 30 | Fold Loss [2]: 620 |
| Nc1ncnc2c1ncn2[C@@H]1O[C@@H]2COP(=O)(O)O[C@H]3[C@@H](O)[C@H](n4cnc5c(=O)[nH]cnc54)O[C@@H]3COP(=O)(O)O[C@H]2[C@H]1O [c-AMP-IMP] |  |  |  |  | 4.3 kcal/mol | 3.3 |  |
| O=c1[nH]cnc2c1ncn2[C@@H]1O[C@@H]2COP(=O)(O)O[C@H]3[C@@H](O)[C@H](n4cnc5c(=O)[nH]cnc54)O[C@@H]3COP(=O)(O)O[C@H]2[C@H]1O [c-di-IMP] |  |  |  | 3600 | 4.9 kcal/mol | ≥ 4100 |  |
| Nc1nc2c(ncn2[C@@H]2O[C@@H]3COP(=O)(O)O[C@H]4[C@@H](O)[C@H](n5cnc6c(=O)[nH]c(N)nc65)O[C@@H]4COP(=O)(O)O[C@H]3[C@H]2O)c(=O)[nH]1 [c-di-GMP, (3’-5’)-cyclic diguanosine monophosphate, reference compound] |  |  |  |  | > 10 kcal/mol |  | binding to ydaO riboswitch (in words) [2]: no detectable binding |
| Nc1ncnc2c1ncn2C1CC2OP(=O)(O)OCC3OC(n4cnc5c(N)ncnc54)C(O)C3OP(=O)(O)OCC2O1 (centres unmarked) [c-dA-AMP] |  |  | measurable deficiency in linearization |  | 1.8 kcal/mol | 1.2 | Fold Loss [2]: 20 |
| Nc1ncnc2c1ncn2[C@@H]1O[C@@H]2COP(=O)(O)O[C@H]3[C@@H](O)[C@H](n4cnc5c(N)ncnc54)O[C@@H]3COP(=O)(O)O[C@H]2[C@H]1O [c-di-AMP, (3’-5’)-cyclic diadenosine monophosphate] |  |  |  |  |  |  | fold lower affinity than the ΔSite mutants ([4]; Site 2U (G-U wobble) construct): less than 10 fold; Hill coefficient ([4]; Site 2U construct): 1; Kd [5]: 0.0055 ± 0.0003 µM; Hill coefficient ([5]; ΔSite1 mutant): 1; Hill coefficient ([2]; c-di-AMP binding curve, wild-type ydaO, cooperative binding model): 1.6; fold lower affinity than the ΔSite mutants ([6]; Site 1U (G-U wobble) construct): less than 10 fold; Hill coefficient ([6]; Site 1U construct): 1; Kd [7]: 0.0033 ± 0.0005 µM; Hill coefficient ([7]; ΔSite2 mutant): 1; fold loss in affinity compared with wild-type ydaO ([7]; ΔSite2 mutant versus wild-type): 6 fold; rate of c-di-AMP hydrolysis, previously published value [8]: 0.55 ± 0.02 s⁻¹; Km ([9]; c-di-AMP as substrate of GdpP): 130 µM; rate of c-di-AMP hydrolysis (kcat) ([9]; steady-state, substrate 3 to 800 µM, 200 nM GdpP): 0.26 ± 0.02 s⁻¹; Vmax, maximum reaction velocity ([9]; used in Ki equation): 15.6 min⁻¹; selectivity of ydaO binding over c-di-GMP and c-AMP-GMP [10]: more than 100,000 fold; initial rate of hydrolysis ([3]; 100 µM substrate, 1 µM GdpP): 4.1 min⁻¹; degradation of c-di-AMP after 60 min (in words) ([3]; HPLC traces, experimental conditions used): completely degraded; binding to Site 2 when Site 1 was mutated (in words) [11]: No measurable binding; affinity for the riboswitch (in words) [12]: disrupted c-di-AMP affinity |
| Nc1ncnc2c1ncn2[C@@H]1O[C@@H]2CO[P@@](=O)(S)O[C@H]3[C@@H](O)[C@H](n4cnc5c(N)ncnc54)O[C@@H]3CO[P@@](=O)(S)O[C@H]2[C@H]1O [c-(RpRp)-di-Aps] | 260 ± 2.7 µM | 2.0 |  | 1.8 | 0.4 kcal/mol | ≥ 4100 | Fold Change ([1]; listed as RpRp): ≤ 2; Kd [5]: 0.0113 ± 0.0008 µM; fold loss in affinity compared to native ligand [5]: 2 fold; Kd [7]: 0.0062 ± 0.0005 µM; fold loss in affinity compared to native ligand [7]: 2 fold; degradation by GdpP (in words) [3]: No detectable degradation |
| Nc1ncnc2c1ncn2[C@H]1C[C@@H]2OP(=O)(O)OC[C@H]3O[C@@H](n4cnc5c(N)ncnc54)C[C@@H]3OP(=O)(O)OC[C@H]2O1 [c-di-dAMP] | 200 ± 18 µM | 1.5 | reduced degradation velocity | 290 | 3.4 kcal/mol | ≥ 4100 | loss in ligand affinity ([10]; previously reported): up to 100 fold |
| Nc1ncnc2c1ncn2[C@@H]1O[C@@H]2COP(=O)(O)O[C@H]3[C@@H](F)[C@H](n4cnc5c(N)ncnc54)O[C@@H]3COP(=O)(O)O[C@H]2[C@H]1O [c-2’F-A-AMP] |  |  |  |  | 2.3 kcal/mol | 24 | Fold Loss [2]: 47; binding energy weaker than the corresponding deoxy variant ([2]; wild-type ydaO): ~0.5 kcal/mol |
| Nc1ncnc2c1ncn2[C@@H]1O[C@@H]2CO[P@@](=O)(S)O[C@H]3[C@@H](O)[C@H](n4cnc5c(N)ncnc54)O[C@@H]3CO[P@](=O)(S)O[C@H]2[C@H]1O [c-(RpSp)-di-Aps] | 210 ± 17 µM | 1.6 |  | 2.9 | 0.6 kcal/mol | ≥ 4100 | Fold Change ([1]; listed as RpSp): ≤ 2; Kd [5]: 0.0094 ± 0.0011 µM; fold loss in affinity compared to native ligand [5]: 2 fold; Kd [7]: 0.0054 ± 0.0004 µM; fold loss in affinity compared to native ligand [7]: 2 fold; degradation by GdpP (in words) [3]: No detectable degradation |
| CO[C@@H]1[C@@H]2OP(=O)(O)OC[C@H]3O[C@@H](n4cnc5c(N)ncnc54)[C@H](OC)[C@@H]3OP(=O)(O)OC[C@H]2O[C@H]1n1cnc2c(N)ncnc21 [c-di-2’OMe-AMP] | 15 ± 2.5 µM | 0.12 | reduced degradation velocity | > 2.9 × 10^6 | > 8.8 kcal/mol | ≥ 4100 | binding to ydaO riboswitch (in words) [2]: no detectable affinity |
| Nc1ncnc2c1ncn2[C@@H]1O[C@@H]2COP(=O)(O)O[C@H]3[C@@H](F)[C@H](n4cnc5c(N)ncnc54)O[C@@H]3COP(=O)(O)O[C@H]2[C@H]1F [c-di-2’F-AMP] | 26 ± 3.6 µM | 0.2 | reduced degradation velocity | 5100 | 5.1 kcal/mol | ≥ 4100 | binding energy weaker than the corresponding deoxy variant ([2]; wild-type ydaO): more than 1.7 kcal/mol |
